Measured values published in patent publication US9695129B2, “Parasiticidal compositions comprising benzimidazole derivatives, methods and uses thereof” (MERIAL INC., priority 2012, dated 2017).
Read-outs that look alike come from different tables or passages of the source.

How the values were obtained:
Parameters in all cases: species or system Fasciola hepatica
adult F. hepatica [1] = assay: In vitro test on adult F. hepatica (viability scale, effective concentration); settings: Fasciola hepatica, read-out: Effective in vitro concentration
Method: Representative compounds of formula (I), formula (II), and formula (III) were tested in vitro against F. hepatica as follows. Adult F. hepatica (fluke) were collected from infected bovine livers obtained from a local abattoir (Basel, Switzerland). The worms were quickly washed with 0.9% (w/v) NaCl and placed in 6 or 12-well plates (Costar). Culture medium in each well contained RPMI 1640 (Gibco) at 37° C., which was supplemented with antibiotics (50 μg/ml streptomycin and 50 IU/ml penicillin; Gibco) and 80 μg/ml of a haemin solution. The haemin solution was prepared as follows: 5 mg haemin was dissolved in 1 ml of 0.1M aqueous solution of NaOH, and 3.95 ml of PBS (pH=7.4) and 0.05 ml of 1M HCl were added to adjust the pH to 7.1-7.4 (Keiser and Morson, 2008). Cultures were kept at 37° C. in an atmosphere of 5% CO2. To monitor the temporal effects of test compounds in vitro, 3 flukes were incubated for 72 h in the presence of 50 or 100 μg/ml of each test compound. At 24, 48, and 72 h, worms were examined using a dissecting microscope. For the adult worms, a viability scale ranging from 4 (normal movements) to 1 (death; no movement observed for two min using a microscope) was used.
(§1) Table 1 lists representative compounds of formula (I) of the present invention and their effective in vitro concentrations against F. hepatica. All compounds were tested in vitro on the adult stage of F. hepatica as described above. Each data point refers to at least two independent experiments. For Table 1, R2 is H, R4 is Cl and R5 is H.
as §1, with “2” for “1”, “(II)” for “(I)”, “2 compounds, the 2-position of the benzimidazole ring” for “1, R2”, “methylthio, R6” for “H, R4”, “H” for “Cl”, “R9” for “R5”
as §1, with “3” for “1”, “(III)” for “(I)”, “3, the 2-position of the benzimidazole ring” for “1, R2”, “trifluoromethylthio, R10” for “H, R4”, “H” for “Cl”, “R13” for “R5”

[2] = test system: F. hepatica resistant to triclabendazole (Oberon isolate of Australia); assay: In vitro test against triclabendazole-resistant F. hepatica (Oberon isolate), movement score; settings: for Fluke activity score: scale 3 (very active) to 0 (death)
adult F. hepatica [3] = assay: In vivo test in female Wistar rats harboring adult F. hepatica; settings: single oral dose 100 mg/kg, one week after dosing; for Number of living worms Ø = average: control 6.3; for Worm burden reduction %: vs untreated control
Method: Additionally, five compounds were tested in vivo in female Wistar rats against an untreated control. Rats were kept in groups of five in type-4 Makrolon cages under environmentally controlled conditions (temperature, 22° C.; humidity, 70%; light/dark cycle, 12/12 h) with free access to water and rodent food. F. hepatica metacercariae (Pacific Northwest wild strain) were purchased from Baldwin Aquatics (Monmouth, Oreg.). After one week of adaptation, each rat was infected by oral gavage with approximately 25 metacercariae.
Three rats harboring adult F. hepatica (>8 weeks postinfection) were used to test each of five compounds. The rats were given a single oral dose of 100 mg/kg with each of test compounds 273, 274, 282, 290 and 303. Untreated rats (n=3) served as controls. Dosing formulations consisted of 300 ul Tween 80:ethanol (1:1) and 2.7 ml water. One week after dosing the animals were euthanized and live worms recovered from excised bile ducts.

[4] = Table 1, formula (I), adult flukes incubated up to 72 h, at least two independent experiments

SMILES | minimal effective concentration (adult F. hepatica [1]; 72 h) | Fluke activity score ([2]; 20 μg/ml, 0 h) | Fluke activity score ([2]; 20 μg/ml, 24 h) | Fluke activity score ([2]; 20 μg/ml, 48 h) | Fluke activity score ([2]; 20 μg/ml, 72 h) | No. of rats cured/No. of rats investigated (adult F. hepatica [3]) | Number of living worms Ø = average (adult F. hepatica [3]) | Worm burden reduction % (adult F. hepatica [3]) | further results
FC(F)(F)c1nc2cc(Cl)c(-c3ccc(Cl)cc3)cc2[nH]1 [Compound 130, 6-chloro-5-(4-chlorophenyl)-2-trifluoromethylbenzimidazole] | 2.5 µg/mL | 3 | 0.25 | 0 | 0 | – | – | – | –
FC(F)(F)C(F)(F)C(F)(F)c1nc2cc(Cl)c(Oc3cccc(Cl)c3Cl)cc2[nH]1 [Compound 140, 6-chloro-5-(2,3-dichlorophenoxy)-2-heptafluoropropylbenzimidazole] | 5 µg/mL | 3 | 0.5 | 0 | 0 | – | – | – | –
FC(F)(F)C(F)(F)C(F)(F)c1nc2cc(Cl)c(Oc3ccc(Cl)cc3Cl)cc2[nH]1 [Compound 273, 5-chloro-6-(2,4-dichlorophenoxy)-2-(heptafluoropropyl)-1H-1,3-benzodiazole] | 5 µg/mL | 3 | 0 | 0 | 0 | 1/2 | 1.5 | 76.2% | Fluke activity score ([2]; 10 μg/ml, 0 h): 3; Fluke activity score ([2]; 10 μg/ml, 24 h): 0; Fluke activity score ([2]; 10 μg/ml, 48 h): 0; Fluke activity score ([2]; 10 μg/ml, 72 h): 0; Efficacy against triclabendazole-resistant flukes, in words ([2]; even at 10 μg/ml, compared with #114, #130, #140 and 50 μg/ml triclabendazole/sulfoxide): particularly efficacious
FC(F)(F)C(F)(F)C(F)(F)c1nc2cc(Cl)c(-c3ccc(Cl)cc3)cc2[nH]1 [Compound 274, 5-chloro-6-(4-chlorophenyl)-2-(heptafluoropropyl)-1H-1,3-benzodiazole] | 5 µg/mL | – | – | – | – | 1/3 | 2.3 | – | –
Fc1ccc(-c2cc3[nH]c(C(F)(F)C(F)(F)C(F)(F)F)nc3cc2Cl)cc1 [Compound 282, 5-chloro-6-(4-fluorophenyl)-2-(heptafluoropropyl)-1H-1,3-benzodiazole] | < 2.5 µg/mL | – | – | – | – | 2/3 | 2 | – | –
FC(F)(F)c1ccc(-c2cc3[nH]c(C(F)(F)C(F)(F)C(F)(F)F)nc3cc2Cl)cc1 [Compound 290, 5-chloro-2-(heptafluoropropyl)-6-[4-(trifluoromethyl)phenyl]-1H-1,3-benzodiazole] | – | – | – | – | – | 1/3 | 3.3 | 47.6% | minimal effective concentration (adult F. hepatica [1]; [4]): 50 µg/mL
FC(F)(F)c1ccc(-c2cc3[nH]c(C(F)(F)C(F)(F)C(F)(F)F)nc3cc2Cl)c(C(F)(F)F)c1 [Compound 303, 6-[2,4-bis(trifluoromethyl)phenyl]-5-chloro-2-(heptafluoropropyl)-1H-1,3-benzodiazole] | – | – | – | – | – | 1/3 | 1.3 | 79.4% | minimal effective concentration (adult F. hepatica [1]; [4]): 20 µg/mL
C[S+]([O-])c1nc2cc(Oc3cccc(Cl)c3Cl)c(Cl)cc2[nH]1 (centres unmarked) [TBZ-SOX, triclabendazole/sulfoxide, reference compound] | – | – | – | – | – | – | – | – | Fluke activity score ([2]; 50 μg/ml, 0 h): 3; Fluke activity score ([2]; 50 μg/ml, 24 h): 3; Fluke activity score ([2]; 50 μg/ml, 48 h): 2.5; Fluke activity score ([2]; 50 μg/ml, 72 h): 2
